The source of these data is patent US7368606B2, “Amorphous cinacalcet hydrochloride and preparation thereof” (Teva Pharmaceutical Industries Ltd., priority 2005, dated 2008).

Data set [1] in a line: Stability of amorphous cinacalcet HCl on storage at ambient temperature (PXRD). The format is physicochemical. The note with it: stored at ambient temperature in a closed bottle for 2 months, hydrochloride. As for the experimental part:
Powder X-Ray powder diffraction data were obtained using a […] powder X-Ray diffractometer model X'TRA equipped with a solid state detector and a variable gonimeter. Copper radiation of 1.5418 Å was used. A round standard aluminum sample holder with round zero background, and cavity of 25(diameter)*0.5(dept) mm. Scanning parameters were in the range of 2-40°2θ and a continuous scan rate of 3°/min.

A short description of data set [2]: Water content and solid form of amorphous cinacalcet HCl after exposure to humidity (KF titration, PXRD). In kind it is physicochemical. The note with it: 100 percent relative humidity; for Solid form by PXRD after exposure to humidity (physical stability): hydrochloride. How it is done:
Powder X-Ray powder diffraction data were obtained using a SCINTAG powder X-Ray diffractometer model X'TRA equipped with a solid state detector and a variable gonimeter. Copper radiation of 1.5418 Å was used. A round standard aluminum sample holder with round zero background, and cavity of 25(diameter)*0.5(dept) mm. Scanning parameters were in the range of 2-40°2θ and a continuous scan rate of 3°/min.
100 mg amorphous cinacalcet HCl was spread as a thin layer, and exposed to 100 percent relative humidity for 8 days. The sample was than tested by PXRD and by Karl Fischer (“KF”) titration. Amorphous cinacalcet HCl was obtained with water content of 1.4 percent.

For `C[C@@H](NCCCc1cccc(C(F)(F)F)c1)c1cccc2ccccc12.Cl` [Amorphous Cinacalcet HCl, Cinacalcet hydrochloride], the “Solid form by PXRD after storage (physical stability)” value in data set [1] is “amorphous content”; in data set [1] (listed as Amorphous cinacalcet) it was “stable under prolonged storage”. Besides, the “Water content by Karl Fischer titration after exposure to humidity” value in data set [2] (100 mg spread as a thin layer, 8 days) is recorded as 1.4%. Besides, the “Solid form by PXRD after exposure to humidity (physical stability)” value is “stable at high humidity levels” in data set [2] (8 days, listed as Amorphous cinacalcet) and “Amorphous” in data set [2] (8 days, listed as amorphous cinacalcet HCl). Moreover, in data set [2] (as shown in Example 2), the Hygroscopicity result was “non-hygroscopic”.
